The values below come from patent publication US12071441B2, “10-(di(phenyl)methyl)-4-hydroxy-8,9,9A,10-tetrahydro-7H-pyrrolo[1′,2′:4,5]pyrazino[1,2-b]pyridazine-3,5-dione derivatives and related compounds as inhibitors of the orthomyxovirus replication for treating influenza” (Novartis AG, priority 2018, dated 2024).

SMILES strings stand for the structures. Bounds are passed on as bounds.

Common to all, as to assay: microbe, parasite or virus in culture
Format in all cases: cell-based

Assay [1] deals with influenza A virus minigenome (PB2, PB1, PA, NP; luciferase reporter) in 293T cells, RNP_Alaska. The settings on record: HEK-293T, 48 h.
In assay [2] the test system is influenza A virus minigenome (PB2, PB1, PA, NP; luciferase reporter) in 293T cells, RNP_CAL. The settings on record: HEK-293T, 48 h, read-out: RNP_CAL_EC50.
In assay [3] the test system is influenza A virus minigenome (PB2, PB1, PA, NP; luciferase reporter) in 293T cells, RNP_Hubei. The note with it: HEK-293T, 48 h.

Consider `O=C1c2c(O)c(=O)cnn2[C@@H]([C@@H](c2ccc(F)cc2)c2cccc(C(F)(F)F)c2)[C@H]2CCCN12` [Example 1, (9aR,10S)-10-((S)-(4-fluorophenyl)(3-(trifluoromethyl)phenyl)methyl)-4-hydroxy-8,9,9a,10-tetrahydro-7H-pyrrolo[1′,2′:4,5]pyrazino[1,2-b]pyridazine-3,5-dione], for which the EC50 in assay [1], in assay [2] and in assay [3] was < 0.1 µM in each case.
Take `O=C1c2c(O)c(=O)cnn2[C@@H]([C@@H](c2ccc(F)cc2)c2ccc(C(F)(F)F)cc2)[C@H]2CCCN12` [Example 2, (9aR,10S)-10-((R)-(4-fluorophenyl)(4-(trifluoromethyl)phenyl)methyl)-4-hydroxy-8,9,9a,10-tetrahydro-7H-pyrrolo[1′,2′:4,5]pyrazino[1,2-b]pyridazine-3,5-dione]: the EC50 in assay [1], in assay [2] and in assay [3] was 0.1 to 1 µM each time.
Regarding `O=C1c2c(O)c(=O)cnn2[C@@H]([C@H](c2cccc(C(F)(F)F)c2)c2cccc(F)c2F)[C@H]2CCCN12` [Example 3, (9aR,10S)-10-((R)-(2,3-difluorophenyl)(3-(trifluoromethyl)phenyl)methyl)-4-hydroxy-8,9,9a,10-tetrahydro-7H-pyrrolo[1′,2′:4,5]pyrazino[1,2-b]pyridazine-3,5-dione], the EC50 in assay [1], in assay [2] and in assay [3] was < 0.1 µM in each case.
`O=C1c2c(O)c(=O)cnn2[C@@H]([C@@H](c2ccc(F)cc2)c2cccc(OC(F)(F)F)c2)[C@H]2CCCN12` [Example 4, (9aR,10S)-10-((S)-(4-fluorophenyl)(3-(trifluoromethoxy)phenyl)methyl)-4-hydroxy-8,9,9a,10-tetrahydro-7H-pyrrolo[1′,2′:4,5]pyrazino[1,2-b]pyridazine-3,5-dione]: the EC50 in assay [1] was 0.1 to 1 µM; in assay [2] it was < 0.1 µM; in assay [3], < 0.1 µM.
In the case of `COc1c2n(ncc1=O)[C@@H]([C@H](c1ccccc1)c1cccc(F)c1F)[C@H]1CCCN1C2=O` [Example 38, (9aR,10S)-10-((R)-(2,3-difluorophenyl)(phenyl)methyl)-4-methoxy-8,9,9a,10-tetrahydro-7H-pyrrolo[1′,2′:4,5]pyrazino[1,2-b]pyridazine-3,5-dione], the EC50 in assay [1] and in assay [3] was ≥ 1 µM throughout.
On to `COC(C)(C)C(=O)OCOc1c2n(ncc1=O)[C@@H]([C@H](c1ccccc1)c1cccc(F)c1F)[C@H]1CCCN1C2=O` [Example 41, (((9aR,10S)-10-((R)-(2,3-difluorophenyl)(phenyl)methyl)-3,5-dioxo-3,5,8,9,9a,10-hexahydro-7H-pyrrolo[1′,2′:4,5]pyrazino[1,2-b]pyridazin-4-yl)oxy)methyl 2-methoxy-2-methylpropanoate], for which the EC50 in assay [1] and in assay [3] was < 0.1 µM each time.
As to `COCCOC(=O)OCOc1c2n(ncc1=O)[C@@H]([C@H](c1ccccc1)c1cccc(F)c1F)[C@H]1CCCN1C2=O` [Example 46, (((9aR,10S)-10-((R)-(2,3-difluorophenyl)(phenyl)methyl)-3,5-dioxo-3,5,8,9,9a,10-hexahydro-7H-pyrrolo[1′,2′:4,5]pyrazino[1,2-b]pyridazin-4-yl)oxy)methyl (2-methoxyethyl) carbonate], the EC50 in assay [1] and in assay [3] was ≥ 1 µM in each case.
As for `CCN(C)C(=O)Oc1c2n(ncc1=O)[C@@H]([C@H](c1ccccc1)c1cccc(F)c1F)[C@H]1CCCN1C2=O` [Example 47, (9aR,10S)-10-((R)-(2,3-difluorophenyl)(phenyl)methyl)-3,5-dioxo-3,5,8,9,9a,10-hexahydro-7H-pyrrolo[1′,2′:4,5]pyrazino[1,2-b]pyridazin-4-yl ethyl(methyl)carbamate], the EC50 in assay [1] and in assay [3] was ≥ 1 µM each time.
Regarding `COC(=O)Oc1c2n(ncc1=O)[C@@H]([C@H](c1ccccc1)c1cccc(F)c1F)[C@H]1CCCN1C2=O` [Example 54, (9aR,10S)-10-((R)-(2,3-difluorophenyl)(phenyl)methyl)-3,5-dioxo-3,5,8,9,9a,10-hexahydro-7H-pyrrolo[1′,2′:4,5]pyrazino[1,2-b]pyridazin-4-yl methyl carbonate], the EC50 in assay [1] and in assay [3] was < 0.1 µM each time.
Consider `COCCC(=O)OCOc1c2n(ncc1=O)[C@@H]([C@H](c1ccccc1)c1cccc(F)c1F)[C@H]1CCCN1C2=O` [Example 64, (((9aR,10S)-10-((R)-(2,3-difluorophenyl)(phenyl)methyl)-3,5-dioxo-3,5,8,9,9a,10-hexahydro-7H-pyrrolo[1′,2′:4,5]pyrazino[1,2-b]pyridazin-4-yl)oxy)methyl 3-methoxypropanoate], for which the EC50 in assay [1] and in assay [3] was ≥ 1 µM each time.
As for `O=C(Oc1c2n(ncc1=O)[C@@H]([C@H](c1ccccc1)c1cccc(F)c1F)[C@H]1CCCN1C2=O)N1CCC(N2CCCCC2)CC1` [Example 65, (9aR,10S)-10-((R)-(2,3-difluorophenyl)(phenyl)methyl)-3,5-dioxo-3,5,8,9,9a,10-hexahydro-7H-pyrrolo[1′,2′:4,5]pyrazino[1,2-b]pyridazin-4-yl [1,4′-bipiperidine]-1′-carboxylate], the EC50 in assay [1] and in assay [3] was ≥ 1 µM in each case.
In the case of `O=C(Oc1c2n(ncc1=O)[C@@H]([C@H](c1ccccc1)c1cccc(F)c1F)[C@H]1CCCN1C2=O)N1CCOCC1` [Example 66, (9aR,10S)-10-((R)-(2,3-difluorophenyl)(phenyl)methyl)-3,5-dioxo-3,5,8,9,9a,10-hexahydro-7H-pyrrolo[1′,2′:4,5]pyrazino[1,2-b]pyridazin-4-yl morpholine-4-carboxylate], the EC50 in assay [1] and in assay [3] was ≥ 1 µM in each case.
For the compound `COc1c2n(ncc1=O)[C@@H]([C@H](c1ccc(F)cc1)c1cccc(F)c1F)[C@H]1CCCN1C2=O` [Example 81, (9aR,10S)-10-((R)-(2,3-difluorophenyl)(4-fluorophenyl)methyl)-4-methoxy-8,9,9a,10-tetrahydro-7H-pyrrolo[1′,2′:4,5]pyrazino[1,2-b]pyridazine-3,5-dione], the EC50 in assay [1] and in assay [3] was ≥ 1 µM each time.
For `CN(C)C(=O)Oc1c2n(ncc1=O)[C@@H]([C@H](c1ccc(F)cc1)c1cccc(F)c1F)[C@H]1CCCN1C2=O` [Example 87, (9aR,10S)-10-((R)-(2,3-difluorophenyl)(4-fluorophenyl)methyl)-3,5-dioxo-3,5,8,9,9a,10-hexahydro-7H-pyrrolo[1′,2′:4,5]pyrazino[1,2-b]pyridazin-4-yl dimethylcarbamate], the EC50 in assay [1] and in assay [3] was ≥ 1 µM throughout.
On to `CC(C)OC(=O)OCOc1c2n(ncc1=O)[C@@H]([C@H](c1ccc(F)cc1)c1cccc(F)c1F)[C@H]1CCCN1C2=O` [Example 89, (((9aR,10S)-10-((R)-(2,3-difluorophenyl)(4-fluorophenyl)methyl)-3,5-dioxo-3,5,8,9,9a,10-hexahydro-7H-pyrrolo[1′,2′:4,5]pyrazino[1,2-b]pyridazin-4-yl)oxy)methyl isopropyl carbonate], for which the EC50 in assay [1] and in assay [3] was < 0.1 µM in each case.
Turning to `COC(C)(C)C(=O)Oc1c2n(ncc1=O)[C@@H]([C@H](c1ccc(F)cc1)c1cccc(F)c1F)[C@H]1CCCN1C2=O` [Example 90, (9aR,10S)-10-((R)-(2,3-difluorophenyl)(4-fluorophenyl)methyl)-3,5-dioxo-3,5,8,9,9a,10-hexahydro-7H-pyrrolo[1′,2′:4,5]pyrazino[1,2-b]pyridazin-4-yl 2-methoxy-2-methylpropanoate], the EC50 in assay [1] and in assay [3] was < 0.1 µM each time.
Turning to `CC(C)(C)OC(=O)OCOc1c2n(ncc1=O)[C@@H]([C@H](c1ccc(F)cc1)c1cccc(F)c1F)[C@H]1CCCN1C2=O` [Example 91, tert-butyl ((((9aR,10S)-10-((R)-(2,3-difluorophenyl)(4-fluorophenyl)methyl)-3,5-dioxo-3,5,8,9,9a,10-hexahydro-7H-pyrrolo[1′,2′:4,5]pyrazino[1,2-b]pyridazin-4-yl)oxy)methyl) carbonate], the EC50 in assay [1] and in assay [3] was < 0.1 µM throughout.
As for `CN(C)C(=O)OCOc1c2n(ncc1=O)[C@@H]([C@H](c1cccc(F)c1)c1cccc(F)c1F)[C@H]1CCCN1C2=O` [Example 101, (((9aR,10S)-10-((R)-(2,3-difluorophenyl)(3-fluorophenyl)methyl)-3,5-dioxo-3,5,8,9,9a,10-hexahydro-7H-pyrrolo[1′,2′:4,5]pyrazino[1,2-b]pyridazin-4-yl)oxy)methyl dimethylcarbamate], the EC50 in assay [1] is ≥ 1 µM; in assay [3], 0.1 to 1 µM.
As to `CC(C)OC(=O)Oc1c2n(ncc1=O)[C@@H]([C@H](c1cccc(F)c1)c1cccc(F)c1F)[C@H]1CCCN1C2=O` [Example 103, (9aR,10S)-10-((R)-(2,3-difluorophenyl)(3-fluorophenyl)methyl)-3,5-dioxo-3,5,8,9,9a,10-hexahydro-7H-pyrrolo[1′,2′:4,5]pyrazino[1,2-b]pyridazin-4-yl isopropyl carbonate], the EC50 in assay [1] and in assay [3] was < 0.1 µM each time.
With `CC(C)(C)C(=O)OCOc1c2n(ncc1=O)[C@@H]([C@H](c1cccc(F)c1)c1cccc(F)c1F)[C@H]1CCCN1C2=O` [Example 109, (((9aR,10S)-10-((R)-(2,3-difluorophenyl)(3-fluorophenyl)methyl)-3,5-dioxo-3,5,8,9,9a,10-hexahydro-7H-pyrrolo[1′,2′:4,5]pyrazino[1,2-b]pyridazin-4-yl)oxy)methyl pivalate], the EC50 in assay [1] and in assay [3] was < 0.1 µM each time.
Regarding `CC(C)(C)C(=O)Oc1c2n(ncc1=O)[C@@H]([C@H](c1cccc(F)c1)c1cccc(F)c1F)[C@H]1CCCN1C2=O` [Example 111, (9aR,10S)-10-((R)-(2,3-difluorophenyl)(3-fluorophenyl)methyl)-3,5-dioxo-3,5,8,9,9a,10-hexahydro-7H-pyrrolo[1′,2′:4,5]pyrazino[1,2-b]pyridazin-4-yl pivalate], the EC50 in assay [1] and in assay [3] was < 0.1 µM each time.
